# According to patent US20230085307A1, “PYRIDAZINONE COMPOUND AND HERBICIDE” (NISSAN CHEMICAL CORPORATION, priority 2019, published 2023):
# Assays:
# Italian ryegrass [1] = assay: Test Example 4: herbicidal effect by soil treatment (Table 19, symbol K); format: in vivo, Italian ryegrass (Lolium multiflorum)
# Outline: (§1)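 Step 1: sow seeds in sterilized diluvial soil, cover ~1.5 cm. Step 2: spray diluted emulsion onto soil surface at predetermined rate. Step 3: greenhouse, 25–30° C, three weeks. Step 4: grade effect on each plant by earlier criteria.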
# barnyard grass [2] = assay: Test Example 3: herbicidal effect by foliage application, Wagner pot (Table 18, symbol H); format: in vivo, barnyard grass (Echinochloa crus-galli)
# Outline: (§2)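 Plants were sown in alluvial soil held under 0.1–0.5 cm standing water and grown 14 days in a greenhouse at 25–30 °C. An emulsifiable formulation, water-diluted to the set dose, was then sprayed onto the foliage, and effects were scored three weeks later using previously defined criteria.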
# lambsquarters [3] = assay: Test Example 5: herbicidal effect by foliage application, plastic box (Table 20, symbol O); format: in vivo, lambsquarters (Chenopodium album); conditions: foliage application, three weeks after application
# Outline: (§3)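 Foliar spray test: emulsion formulation diluted in water to a set application rate, sprayed onto 14-day-old plants raised in diluvial soil at 25° C to 30° C under glass. Both herbicidal effect and crop effect rated visually three weeks later.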
# windgrass [4] = assay: Test Example 4: herbicidal effect by soil treatment (Table 19, symbol L); format: in vivo, windgrass (Apera spica-venti)
# Outline: as §1
# false cleavers = assay: Test Example 5: herbicidal effect by foliage application, plastic box (Table 20, symbol Q); format: in vivo, false cleavers (Galium spurium); conditions: foliage application, three weeks after application
# Outline: as §3
# wild oat [5] = assay: Test Example 4: herbicidal effect by soil treatment (Table 19, symbol I); format: in vivo, wild oat (Avena fatua)
# Outline: as §1
# wild oat [6] = assay: Test Example 5: herbicidal effect by foliage application, plastic box (Table 20, symbol I); format: in vivo, wild oat (Avena fatua); conditions: foliage application, three weeks after application
# Outline: as §3
# rice flat sedge = assay: Test Example 3: herbicidal effect by foliage application, Wagner pot (Table 18, symbol E); format: in vivo, rice flat sedge (Cyperus iria)
# Outline: as §2
# persian speedwell [7] = assay: Test Example 5: herbicidal effect by foliage application, plastic box (Table 20, symbol R); format: in vivo, Persian speedwell (Veronica persica); conditions: foliage application, three weeks after application
# Outline: as §3
# green foxtail [8] = assay: Test Example 4: herbicidal effect by soil treatment (Table 19, symbol G); format: in vivo, green foxtail (Setaria viridis)
# Outline: as §1
# lambsquarters [9] = assay: Test Example 4: herbicidal effect by soil treatment (Table 19, symbol O); format: in vivo, lambsquarters (Chenopodium album)
# Outline: as §1
# Italian ryegrass [10] = assay: Test Example 5: herbicidal effect by foliage application, plastic box (Table 20, symbol K); format: in vivo, Italian ryegrass (Lolium multiflorum); conditions: foliage application, three weeks after application
# Outline: as §3
# chickweed [11] = assay: Test Example 4: herbicidal effect by soil treatment (Table 19, symbol P); format: in vivo, common chickweed (Stellaria media)
# Outline: as §1
# Chinese sprangletop = assay: Test Example 3: herbicidal effect by foliage application, Wagner pot (Table 18, symbol D); format: in vivo, chinese sprangletop (Leptochloa chinensis)
# Outline: as §2
# persian speedwell [12] = assay: Test Example 4: herbicidal effect by soil treatment (Table 19, symbol R); format: in vivo, Persian speedwell (Veronica persica)
# Outline: as §1
# blackgrass [13] = assay: Test Example 4: herbicidal effect by soil treatment (Table 19, symbol J); format: in vivo, blackgrass (Alopecurus myosuroides); conditions: amount of applied herbicide 320 g/ha
# Outline: as §1
# velvetleaf [14] = assay: Test Example 4: herbicidal effect by soil treatment (Table 19, symbol M); format: in vivo, velvetleaf (Abutilon theophrasti)
# Outline: as §1
# velvetleaf [15] = assay: Test Example 5: herbicidal effect by foliage application, plastic box (Table 20, symbol M); format: in vivo, velvetleaf (Abutilon theophrasti); conditions: foliage application, three weeks after application
# Outline: as §3
# barnyard grass [16] = assay: Test Example 4: herbicidal effect by soil treatment (Table 19, symbol H); format: in vivo, barnyard grass (Echinochloa crus-galli)
# Outline: as §1
# windgrass [17] = assay: Test Example 5: herbicidal effect by foliage application, plastic box (Table 20, symbol L); format: in vivo, windgrass (Apera spica-venti); conditions: foliage application, three weeks after application
# Outline: as §3
# southern crabgrass [18] = assay: Test Example 4: herbicidal effect by soil treatment (Table 19, symbol F); format: in vivo, southern crabgrass (Digitaria ciliaris)
# Outline: as §1
# barnyard grass [19] = assay: Test Example 5: herbicidal effect by foliage application, plastic box (Table 20, symbol H); format: in vivo, barnyard grass (Echinochloa crus-galli); conditions: foliage application, three weeks after application
# Outline: as §3
# southern crabgrass [20] = assay: Test Example 5: herbicidal effect by foliage application, plastic box (Table 20, symbol F); format: in vivo, southern crabgrass (Digitaria ciliaris); conditions: foliage application, three weeks after application
# Outline: as §3
# redroot pigweed [21] = assay: Test Example 4: herbicidal effect by soil treatment (Table 19, symbol N); format: in vivo, redroot pigweed (Amaranthus retroflexus)
# Outline: as §1
# green foxtail [22] = assay: Test Example 5: herbicidal effect by foliage application, plastic box (Table 20, symbol G); format: in vivo, green foxtail (Setaria viridis); conditions: foliage application, three weeks after application
# Outline: as §3
# blackgrass [23] = assay: Test Example 5: herbicidal effect by foliage application, plastic box (Table 20, symbol J); format: in vivo, blackgrass (Alopecurus myosuroides); conditions: foliage application, three weeks after application
# Outline: as §3
# chickweed [24] = assay: Test Example 5: herbicidal effect by foliage application, plastic box (Table 20, symbol P); format: in vivo, common chickweed (Stellaria media); conditions: foliage application, AAH 320 g/ha, three weeks after application
# Outline: as §3
# redroot pigweed [25] = assay: Test Example 5: herbicidal effect by foliage application, plastic box (Table 20, symbol N); format: in vivo, redroot pigweed (Amaranthus retroflexus); conditions: foliage application, AAH 320 g/ha, three weeks after application
# Outline: as §3
# [26] = amount of applied herbicide 320 g/ha
structure (smiles),measurement,setting,value
COc1cc(F)ccc1-c1oc2ccc(C)cc2c1-c1c(O)c(C)nn(C)c1=O [9-009],"K: Italian ryegrass, herbicidal effect grade",Italian ryegrass [1]; [26],0 (Herbicidal rate of 5% or less (almost no effect))
same,"Herbicidal effect on H (barnyard grass), foliage application",barnyard grass [2]; [26],3 (Herbicidal rate of 40% or more and less than 70%)
same,herbicidal effect on lambsquarters (O),lambsquarters [3]; 320 g/ha,3 (Herbicidal rate of 40% or more and less than 70%)
same,"L: windgrass, herbicidal effect grade",windgrass [4]; [26],0 (Herbicidal rate of 5% or less (almost no effect))
same,herbicidal effect on false cleavers (Q),false cleavers; 320 g/ha,4 (Herbicidal rate of 70% or more and less than 90%)
same,"I: wild oat, herbicidal effect grade",wild oat [5]; [26],0 (Herbicidal rate of 5% or less (almost no effect))
same,herbicidal effect on wild oat (I),wild oat [6]; 320 g/ha,2 (Herbicidal rate of 20% or more and less than 40%)
same,"Herbicidal effect on E (rice flat sedge), foliage application",rice flat sedge; [26],1 (Herbicidal rate of 5% or more and less than 20%)
same,herbicidal effect on persian speedwell (R),persian speedwell [7]; 320 g/ha,3 (Herbicidal rate of 40% or more and less than 70%)
same,"G: green foxtail, herbicidal effect grade",green foxtail [8]; [26],3 (Herbicidal rate of 40% or more and less than 70%)
same,"O: lambsquarters, herbicidal effect grade",lambsquarters [9]; [26],3 (Herbicidal rate of 40% or more and less than 70%)
same,herbicidal effect on Italian ryegrass (K),Italian ryegrass [10]; 320 g/ha,1 (Herbicidal rate of 5% or more and less than 20%)
same,"P: chickweed, herbicidal effect grade",chickweed [11]; [26],0 (Herbicidal rate of 5% or less (almost no effect))
same,"Herbicidal effect on D (Chinese sprangletop), foliage application",Chinese sprangletop; [26],0 (Herbicidal rate of 5% or less (almost no effect))
same,"R: persian speedwell, herbicidal effect grade",persian speedwell [12]; [26],0 (Herbicidal rate of 5% or less (almost no effect))
same,"J: blackgrass, herbicidal effect grade",blackgrass [13],0 (Herbicidal rate of 5% or less (almost no effect))
same,"M: velvetleaf, herbicidal effect grade",velvetleaf [14]; [26],0 (Herbicidal rate of 5% or less (almost no effect))
same,herbicidal effect on velvetleaf (M),velvetleaf [15]; 320 g/ha,2 (Herbicidal rate of 20% or more and less than 40%)
same,"H: barnyard grass, herbicidal effect grade",barnyard grass [16]; [26],3 (Herbicidal rate of 40% or more and less than 70%)
same,herbicidal effect on windgrass (L),windgrass [17]; 320 g/ha,0 (Herbicidal rate of 5% or less (almost no effect))
same,"F: southern crabgrass, herbicidal effect grade",southern crabgrass [18]; [26],2 (Herbicidal rate of 20% or more and less than 40%)
same,herbicidal effect on barnyard grass (H),barnyard grass [19]; 320 g/ha,3 (Herbicidal rate of 40% or more and less than 70%)
same,herbicidal effect on southern crabgrass (F),southern crabgrass [20]; 320 g/ha,2 (Herbicidal rate of 20% or more and less than 40%)
same,"N: redroot pigweed, herbicidal effect grade",redroot pigweed [21]; [26],0 (Herbicidal rate of 5% or less (almost no effect))
same,herbicidal effect on green foxtail (G),green foxtail [22]; 320 g/ha,2 (Herbicidal rate of 20% or more and less than 40%)
same,herbicidal effect on blackgrass (J),blackgrass [23]; 320 g/ha,0 (Herbicidal rate of 5% or less (almost no effect))
CCCC(=O)Oc1c(OC)nn(C)c(=O)c1-c1c(-c2cc(F)c(F)c(F)c2)sc2ccccc12 [1-187],"K: Italian ryegrass, herbicidal effect rating",Italian ryegrass [1]; AAH 320 g/ha,0 (Herbicidal rate of 5% or less (almost no effect))
same,"herbicidal effect on H (barnyard grass), rating 0-5",barnyard grass [2]; 320 g/ha,0 (Herbicidal rate of 5% or less (almost no effect))
same,"O: lambsquarters, herbicidal effect",lambsquarters [3]; AAH 320 g/ha,5 (Herbicidal rate of 90% or more (almost completely withered))
same,"L: windgrass, herbicidal effect rating",windgrass [4]; AAH 320 g/ha,0 (Herbicidal rate of 5% or less (almost no effect))
same,"Q: false cleavers, herbicidal effect",false cleavers; AAH 320 g/ha,0 (Herbicidal rate of 5% or less (almost no effect))
same,"I: wild oat, herbicidal effect rating",wild oat [5]; AAH 320 g/ha,0 (Herbicidal rate of 5% or less (almost no effect))
same,"I: wild oat, herbicidal effect",wild oat [6]; AAH 320 g/ha,0 (Herbicidal rate of 5% or less (almost no effect))
same,"herbicidal effect on E (rice flat sedge), rating 0-5",rice flat sedge; 320 g/ha,3 (Herbicidal rate of 40% or more and less than 70%)
same,"R: persian speedwell, herbicidal effect",persian speedwell [7]; AAH 320 g/ha,5 (Herbicidal rate of 90% or more (almost completely withered))
same,"G: green foxtail, herbicidal effect rating",green foxtail [8]; AAH 320 g/ha,0 (Herbicidal rate of 5% or less (almost no effect))
same,"O: lambsquarters, herbicidal effect rating",lambsquarters [9]; AAH 320 g/ha,4 (Herbicidal rate of 70% or more and less than 90%)
same,"P: chickweed, herbicidal effect",chickweed [24],3 (Herbicidal rate of 40% or more and less than 70%)
same,"K: Italian ryegrass, herbicidal effect",Italian ryegrass [10]; AAH 320 g/ha,0 (Herbicidal rate of 5% or less (almost no effect))
same,"P: chickweed, herbicidal effect rating",chickweed [11]; AAH 320 g/ha,5 (Herbicidal rate of 90% or more (almost completely withered))
same,"herbicidal effect on D (Chinese sprangletop), rating 0-5",Chinese sprangletop; 320 g/ha,0 (Herbicidal rate of 5% or less (almost no effect))
same,"R: persian speedwell, herbicidal effect rating",persian speedwell [12]; AAH 320 g/ha,4 (Herbicidal rate of 70% or more and less than 90%)
same,"M: velvetleaf, herbicidal effect rating",velvetleaf [14]; AAH 320 g/ha,0 (Herbicidal rate of 5% or less (almost no effect))
same,"M: velvetleaf, herbicidal effect",velvetleaf [15]; AAH 320 g/ha,4 (Herbicidal rate of 70% or more and less than 90%)
same,"H: barnyard grass, herbicidal effect rating",barnyard grass [16]; AAH 320 g/ha,0 (Herbicidal rate of 5% or less (almost no effect))
same,"L: windgrass, herbicidal effect",windgrass [17]; AAH 320 g/ha,0 (Herbicidal rate of 5% or less (almost no effect))
same,"N: redroot pigweed, herbicidal effect",redroot pigweed [25],4 (Herbicidal rate of 70% or more and less than 90%)
same,"F: southern crabgrass, herbicidal effect rating",southern crabgrass [18]; AAH 320 g/ha,0 (Herbicidal rate of 5% or less (almost no effect))
same,"H: barnyard grass, herbicidal effect",barnyard grass [19]; AAH 320 g/ha,0 (Herbicidal rate of 5% or less (almost no effect))
same,"F: southern crabgrass, herbicidal effect",southern crabgrass [20]; AAH 320 g/ha,0 (Herbicidal rate of 5% or less (almost no effect))
same,"N: redroot pigweed, herbicidal effect rating",redroot pigweed [21]; AAH 320 g/ha,0 (Herbicidal rate of 5% or less (almost no effect))
same,"G: green foxtail, herbicidal effect",green foxtail [22]; AAH 320 g/ha,0 (Herbicidal rate of 5% or less (almost no effect))
same,"J: blackgrass, herbicidal effect",blackgrass [23]; AAH 320 g/ha,0 (Herbicidal rate of 5% or less (almost no effect))
